Measured values: patent publication US12350708B2, “Molecular coatings and methods of making and using the same” (Glisten LLC, priority 2019, dated 2025)

Experiment: water contact angle testing of diamond surfaces
Type: physicochemical
Conditions: diamond surface, Example 11, FIGS. 20A-20D; uncoated diamond approximately 65°
From the text: In some embodiments, water contact angle goniometry can be used to probe the surface properties and performance of the functionalized gemstones (e.g., of the diamond surface, of the surface after the anchor molecule is bound, and/or of the surface after the host molecule is bound forming an inclusion complex). In some embodiments, comparisons of water contact angle can be employed to analytically determine the specific coverage of adsorbed species pertaining to the anchor and to the host/guest complex. In some embodiments, water contact angle can be used to determine the durability of the gemstone coating by performing measurements at various stages of time after normal use after the host/guest inclusion complexes are formed. […]
(§1) Self-assembly of the β-cyclodextrin is analyzed with water contact angle. Angles will decrease according to the quantity of cyclodextrin residing on the substrate. The change in the refractive index of the surface after molecular coating is determined using optical ellipsometry. […]
as §1

contact angle: 61 °
SMILES: OC[C@H]1O[C@@H]2O[C@H]3[C@H](O)[C@@H](O)[C@@H](O[C@H]4[C@H](O)[C@@H](O)[C@@H](O[C@H]5[C@H](O)[C@@H](O)[C@@H](O[C@H]6[C@H](O)[C@@H](O)[C@@H](O[C@H]7[C@H](O)[C@@H](O)[C@@H](O[C@H]8[C@H](O)[C@@H](O)[C@@H](O[C@H]1[C@H](O)[C@H]2O)O[C@@H]8CO)O[C@@H]7CO)O[C@@H]6CO)O[C@@H]5CO)O[C@@H]4CO)O[C@@H]3CO [b-cyclodextrin, β-cyclodextrin]
